Molecular target: Lysophosphatidic acid receptor 1 (Homo sapiens, UniProt Q92633)
Test: Antagonist activity at human LPA1 expressed in CHO cells assessed as reduction in LPA-induced calcium influx incubated for 20 mins
Type: functional, cell-based

Lysophosphatidic acid receptor 1, sequence (Q92633 whole entry): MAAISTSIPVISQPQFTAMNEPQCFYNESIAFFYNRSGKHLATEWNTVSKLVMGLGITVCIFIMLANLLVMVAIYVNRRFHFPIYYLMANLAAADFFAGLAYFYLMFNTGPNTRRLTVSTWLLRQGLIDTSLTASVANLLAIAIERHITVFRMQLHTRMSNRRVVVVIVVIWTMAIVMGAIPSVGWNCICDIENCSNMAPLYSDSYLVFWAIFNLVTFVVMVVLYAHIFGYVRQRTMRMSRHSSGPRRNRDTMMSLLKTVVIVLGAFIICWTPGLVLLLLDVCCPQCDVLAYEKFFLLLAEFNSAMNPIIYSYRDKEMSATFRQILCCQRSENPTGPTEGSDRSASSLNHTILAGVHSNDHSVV

- IC50: 227 nM
Structure (SMILES): Cc1noc(-c2ccc(O[C@H]3CCC[C@H](C(=O)O)C3)cc2)c1CNC(=O)OCc1ccc(Cl)cc1

Source: ChEMBL document CHEMBL4364353, “Lysophosphatidic Acid Receptor 1 Antagonists for the Treatment of Fibrosis” (ACS Med Chem Lett, 2019)
